The record followed here is BindingDB's records for patent US20240140938 (Merck Sharp & Dohme, 2024).

Bounds are passed on as bounds.

Broadly, the IC50 is the concentration at which inhibition is half-maximal.

The experiment deals with T1, Diacylglycerol O-acyltransferase 2 (Homo sapiens, UniProt Q96PD7).
T1 sequence (Q96PD7 whole entry): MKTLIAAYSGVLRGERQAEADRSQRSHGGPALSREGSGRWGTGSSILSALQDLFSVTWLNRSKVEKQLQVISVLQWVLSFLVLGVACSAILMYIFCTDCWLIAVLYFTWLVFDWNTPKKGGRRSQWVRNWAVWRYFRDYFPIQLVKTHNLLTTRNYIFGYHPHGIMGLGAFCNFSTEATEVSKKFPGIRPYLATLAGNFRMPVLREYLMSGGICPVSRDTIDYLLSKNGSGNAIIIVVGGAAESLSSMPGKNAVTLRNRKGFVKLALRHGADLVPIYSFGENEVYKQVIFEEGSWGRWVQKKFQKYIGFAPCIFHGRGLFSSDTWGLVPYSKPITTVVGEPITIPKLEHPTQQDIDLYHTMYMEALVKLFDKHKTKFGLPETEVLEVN
The experiment can be described thus: DGAT2 Enzymatic Activity Assay. Here is the method: DGAT2 activity was determined by measuring the amount of enzymatic product 13C18-triolein (13C-1,2,3-Tri(cis-9-octadecenoyl)glycerol) using the membrane prep mentioned above. The assay was carried out in ABgene 384-well assay plates in a final volume of 25 μL at rt.
Molecule `CC(C)n1nc(-c2cccc(OC(F)F)c2)c2c1C[C@H](C(=O)NC1(C)CS(=O)(=O)C1)CC2` [US20240140938, Example 26] displayed an IC50 of 0.319 µM.

`CC(C)n1nc(-c2cccc(-n3cccn3)c2)c2c1C[C@H](C(=O)NC1(C)CS(=O)(=O)C1)CC2` [US20240140938, Example 97]: the IC50 was more than 10 µM. The same measure for `CN1CCC(n2nc(-c3cccc(OC(F)F)c3)c3c2C[C@H](C(=O)N[C@]2(C)CCS(=O)(=O)C2)CC3)CC1` [US20240140938, Example 72]: more than 10 µM; for `CC(C)n1nc(-c2cccc(C(C)(F)F)c2)c2c1C[C@H](C(=O)NC1(C)CS(=O)(=O)C1)CC2` [US20240140938, Example 102]: 8.84 µM.
